Data as given in US9266892B2, “Fused pyrazoles as FGFR inhibitors” (Incyte Corporation, priority 2012, dated 2016).
pIC50: −log10 of the molar value.

Legend:
Type in all cases: biochemical
FGFR3 = molecular target: T1, FGFR3 (Homo sapiens, UniProt P22607); experiment: FGFR Enzymatic Assay (FRET peptide phosphorylation), FGFR3; details: ATP 140 μM, 25° C. for 1 hr
T1 construct: purchased Millipore
How it was run: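 FGFR3 in 50 mM HEPES pH 7.5, 10 mM […]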

FGFR2 = molecular target: T2, FGFR2 (Homo sapiens, UniProt P21802); experiment: FGFR Enzymatic Assay (FRET peptide phosphorylation), FGFR2; details: FGFR2 0.01 nM, ATP 100 μM
T2 construct: purchased Millipore or Invitrogen
T2 sequence (P21802 22-821): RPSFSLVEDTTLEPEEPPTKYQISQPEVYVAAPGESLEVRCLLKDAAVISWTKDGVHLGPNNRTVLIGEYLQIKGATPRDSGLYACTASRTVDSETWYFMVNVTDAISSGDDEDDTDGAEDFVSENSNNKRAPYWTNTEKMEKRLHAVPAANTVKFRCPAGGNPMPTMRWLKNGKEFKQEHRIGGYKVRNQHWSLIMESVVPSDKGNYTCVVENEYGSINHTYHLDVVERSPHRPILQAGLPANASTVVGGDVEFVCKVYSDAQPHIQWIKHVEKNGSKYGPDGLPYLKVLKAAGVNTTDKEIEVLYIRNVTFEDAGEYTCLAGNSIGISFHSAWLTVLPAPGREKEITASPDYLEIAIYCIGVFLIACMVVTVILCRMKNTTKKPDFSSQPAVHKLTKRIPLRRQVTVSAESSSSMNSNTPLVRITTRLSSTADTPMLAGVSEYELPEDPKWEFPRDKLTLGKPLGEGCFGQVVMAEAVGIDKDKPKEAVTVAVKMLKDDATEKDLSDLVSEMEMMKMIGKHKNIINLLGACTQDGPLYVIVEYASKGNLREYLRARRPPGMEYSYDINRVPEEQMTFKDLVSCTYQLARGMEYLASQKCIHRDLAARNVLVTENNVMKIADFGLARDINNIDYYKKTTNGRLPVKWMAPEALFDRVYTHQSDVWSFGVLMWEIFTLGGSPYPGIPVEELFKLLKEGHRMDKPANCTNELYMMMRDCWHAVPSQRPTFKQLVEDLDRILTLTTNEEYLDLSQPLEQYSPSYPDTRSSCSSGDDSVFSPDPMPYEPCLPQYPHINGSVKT
How it was run: (§1)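 Human FGFR1 (0.02 nM) and FGFR2 (0.01 nM) were pre-incubated with compound for 5-10 min in HEPES buffer pH 7.5, then reacted at 25 °C for 1 hr with 500 nM biotinylated peptide and ATP (FGFR1 210 μM; FGFR2 100 μM). Phosphopeptide was detected by Eu-PY20/APC-streptavidin TR-FRET after EDTA quench. IC50 came from variable-slope sigmoidal fits.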

FGFR1 = molecular target: T3, FGFR1 (Homo sapiens, UniProt P11362); experiment: FGFR Enzymatic Assay (FRET peptide phosphorylation), FGFR1; details: FGFR1 0.02 nM, ATP 210 μM
T3 construct: purchased Millipore or Invitrogen
T3 sequence (P11362 22-822): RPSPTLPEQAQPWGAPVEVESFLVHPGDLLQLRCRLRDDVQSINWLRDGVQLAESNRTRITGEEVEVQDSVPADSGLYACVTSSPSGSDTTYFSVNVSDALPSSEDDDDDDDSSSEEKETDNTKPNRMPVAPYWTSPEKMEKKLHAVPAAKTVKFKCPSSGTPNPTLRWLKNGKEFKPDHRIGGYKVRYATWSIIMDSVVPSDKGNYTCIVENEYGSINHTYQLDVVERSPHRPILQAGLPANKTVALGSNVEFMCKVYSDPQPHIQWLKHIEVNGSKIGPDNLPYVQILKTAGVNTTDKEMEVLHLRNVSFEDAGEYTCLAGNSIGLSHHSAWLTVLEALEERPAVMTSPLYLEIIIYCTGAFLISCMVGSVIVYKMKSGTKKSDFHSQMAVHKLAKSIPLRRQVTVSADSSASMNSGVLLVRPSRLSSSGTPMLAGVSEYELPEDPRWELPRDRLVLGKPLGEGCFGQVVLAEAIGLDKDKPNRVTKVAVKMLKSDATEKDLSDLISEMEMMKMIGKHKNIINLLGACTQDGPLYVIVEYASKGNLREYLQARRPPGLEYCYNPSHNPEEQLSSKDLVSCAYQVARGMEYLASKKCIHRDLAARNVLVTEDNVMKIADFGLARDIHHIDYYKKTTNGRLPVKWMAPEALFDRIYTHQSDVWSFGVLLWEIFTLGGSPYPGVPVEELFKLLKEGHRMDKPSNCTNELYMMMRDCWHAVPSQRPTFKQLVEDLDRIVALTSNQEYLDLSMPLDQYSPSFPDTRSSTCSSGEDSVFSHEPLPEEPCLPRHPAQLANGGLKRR
How it was run: as §1

Measured: pIC50

T1 sequence (P22607 23-806): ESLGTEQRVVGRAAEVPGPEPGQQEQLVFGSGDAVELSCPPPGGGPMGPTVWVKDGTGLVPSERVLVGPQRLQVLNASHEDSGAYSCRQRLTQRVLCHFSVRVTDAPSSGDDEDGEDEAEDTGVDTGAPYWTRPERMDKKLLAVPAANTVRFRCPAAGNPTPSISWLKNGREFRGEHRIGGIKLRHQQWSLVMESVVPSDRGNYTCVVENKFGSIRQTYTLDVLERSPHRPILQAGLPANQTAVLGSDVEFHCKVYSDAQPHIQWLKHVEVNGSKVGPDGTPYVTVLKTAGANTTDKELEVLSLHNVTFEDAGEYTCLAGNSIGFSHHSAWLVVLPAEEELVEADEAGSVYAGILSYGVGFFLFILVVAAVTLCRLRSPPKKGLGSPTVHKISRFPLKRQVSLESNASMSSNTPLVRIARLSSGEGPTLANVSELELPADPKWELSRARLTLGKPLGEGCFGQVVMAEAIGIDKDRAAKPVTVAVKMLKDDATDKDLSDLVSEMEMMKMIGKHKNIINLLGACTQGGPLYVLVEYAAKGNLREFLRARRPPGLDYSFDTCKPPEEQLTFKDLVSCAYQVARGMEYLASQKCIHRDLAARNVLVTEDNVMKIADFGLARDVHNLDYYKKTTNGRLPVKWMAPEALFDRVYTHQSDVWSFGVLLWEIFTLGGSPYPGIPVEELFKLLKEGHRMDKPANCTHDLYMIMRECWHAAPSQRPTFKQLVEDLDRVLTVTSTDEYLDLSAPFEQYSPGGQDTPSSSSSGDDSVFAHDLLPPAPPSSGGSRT

COc1cc(OC)c(F)c(-c2ccc3c(-c4cnn(C)c4)n[nH]c3n2)c1F [Example 72, 6-(2,6-Difluoro-3,5-dimethoxyphenyl)-3-(1-methyl-1H-pyrazol-4-yl)-1H-pyrazolo[3,4-b]pyridine]
> 7.00: all assays above
